Assay results as given in ChEMBL document CHEMBL1145390, “Synthesis and preliminary biological characterization of new semisynthetic derivatives of ramoplanin” (J Med Chem, 2007).
≈ marks a conversion by molar mass, not a printed value. Numbered stars: 1 amine (or outer) side, 2 acyl side, 3 side chain; on linkers, the order of the positions; unused ones are H or OH. Bridge positions count the residues as written; N and C are the ends. Square brackets hold non-standard residues; d marks the D form. Peptide text beside a SMILES is read from it. * marks the point of attachment. Hpg(αMan(1-2)αMan) = N[C@H](C(=O)O)c1ccc(O[C@H]2O[C@H](CO)[C@@H](O)[C@H](O)[C@@H]2O[C@H]2O[C@H](CO)[C@@H](O)[C@H](O)[C@@H]2O)cc1; Octa(2Z,4E)dienoyl(7-Me) = CC(C)C/C=C/C=C\C(=O)*; X1 = NC(=O)[C@@H](O[*:3])[C@H](N[*:1])C(=O)[*:2]; Hpg(3-Cl) = N[C@H](C(=O)O)c1ccc(O)c(Cl)c1; d(aThr) = C[C@@H](O)[C@@H](N)C(=O)O; dHpg = N[C@@H](C(=O)O)c1ccc(O)cc1; Hpg = N[C@H](C(=O)O)c1ccc(O)cc1; aThr = C[C@H](O)[C@H](N)C(=O)O; dOrn = NCCC[C@@H](N)C(=O)O

How the values were obtained:
[1] = tested on: Enterococcus faecalis; test: Antibacterial activity against Enterococcus faecalis after 24 hrs by broth microdilution method; type: functional; details: read-out: MIC
[2] = tested on: Staphylococcus aureus; test: Antibacterial activity against Staphylococcus aureus Smith after 24 hrs by broth microdilution method; type: functional; details: read-out: MIC
[3] = tested on: Staphylococcus aureus; test: Antibacterial activity against methicillin-resistant Staphylococcus aureus clinical isolate after 24 hrs by broth microdilution method; type: functional; details: read-out: MIC
[4] = tested on: Staphylococcus aureus; test: Antibacterial activity against methicillin-resistant and vancomycin-intermediate resistant Staphylococcus aureus clinical isolate after 24 hrs by broth microdilution method; type: functional; details: read-out: MIC
[5] = tested on: Staphylococcus aureus; test: Antibacterial activity against vancomycin-intermediate resistant Staphylococcus aureus clinical isolate after 24 hrs by broth microdilution method; type: functional
[6] = tested on: Streptococcus pyogenes; test: Antibacterial activity against Streptococcus pyogenes C203 after 24 hrs by broth microdilution method; type: functional; details: C203, 24 h, read-out: MIC
[7] = tested on: Enterococcus faecium; test: Antibacterial activity against Enterococcus faecium after 24 hrs by broth microdilution method; type: functional; details: read-out: MIC
[8] = tested on: Escherichia coli; test: Antibacterial activity against Escherichia coli SKF-12140 after 24 hrs by broth microdilution method; type: functional; details: read-out: MIC
[9] = tested on: Candida albicans; test: Antifungal activity against Candida albicans SKF-2270 after 24 hrs by broth microdilution method; type: functional; details: read-out: MIC
[10] = tested on: Staphylococcus aureus; test: Antibacterial activity against vancomycin-intermediate resistant Staphylococcus aureus clinical isolate in presence of 30% bovine serum after 24 hrs by broth microdilution method; type: functional
[11] = tested on: Staphylococcus aureus; test: Antibacterial activity against Staphylococcus aureus Smith in presence of 30% bovine serum after 24 hrs by broth microdilution method; type: functional
[12] = tested on: Enterococcus faecalis; test: Antibacterial activity against vancomycin-resistant Enterococcus faecalis in presence of 30% bovine serum after 24 hrs by broth microdilution method; type: functional
[13] = tested on: Enterococcus faecium; test: Antibacterial activity against vancomycin A-resistant Enterococcus faecium clinical isolate in presence of 30% bovine serum after 24 hrs by broth microdilution method; type: functional
[14] = Toxicity assessed as hemolysis in erythrocytes at 400 mg/L; type: cell-based, Erythrocyte; details: human, read-out: Activity
[15] = Toxicity assessed as hemolysis in erythrocytes at 200 mg/L; type: cell-based, Erythrocyte; details: human, read-out: Activity
[16] = Toxicity assessed as hemolysis in erythrocytes at 100 mg/L; type: cell-based, Erythrocyte; details: human, read-out: Activity
[17] = Toxicity assessed as hemolysis in erythrocytes at 180 mg/L; type: cell-based, Erythrocyte; details: human, erythrocytes; read-out: Activity
[18] = Toxicity assessed as hemolysis in erythrocytes at 90 mg/L; type: cell-based, Erythrocyte; details: human, erythrocytes; read-out: Activity
[19] = tested on: Enterococcus faecalis; test: Antibacterial activity against vancomycin A-resistant Enterococcus faecalis after 24 hrs by broth microdilution method; type: functional; details: read-out: MIC
[20] = tested on: Enterococcus faecium; test: Antibacterial activity against vancomycin A-resistant Enterococcus faecium clinical isolate after 24 hrs by broth microdilution method; type: functional; details: read-out: MIC

SMILES	MIC [1] [µg/mL]	MIC [2] [µg/mL]	MIC [3] [µg/mL]	MIC [4] [µg/mL]	MIC [5] [µg/mL]	MIC [6] [µg/mL]	MIC [7] [µg/mL]	MIC [8] [µg/mL]	MIC [9] [µg/mL]	MIC [10] [µg/mL]	MIC [11] [µg/mL]	MIC [12] [µg/mL]	MIC [13] [µg/mL]	hemolysis at 400 mg/L [14] [%]	hemolysis at 200 mg/L [15] [%]	hemolysis at 100 mg/L [16] [%]	hemolysis at 180 mg/L [17] [%]	hemolysis at 90 mg/L [18] [%]	MIC [19] [µg/mL]	MIC [20] [µg/mL]
CCC/C=C/C=C/CC(=O)N[C@@H](CC(N)=O)C(=O)NC[C@@H]1C(=O)N[C@H](c2ccc(O)cc2)C(=O)N[C@H](CCCN)C(=O)N[C@H](C(C)C)C(=O)N[C@@H](c2ccc(O)cc2)C(=O)N[C@H](c2ccc(O)cc2)C(=O)N[C@@H]([C@@H](C)O)C(=O)N[C@@H](Cc2ccccc2)C(=O)N[C@H](CCCN)C(=O)N[C@@H](c2ccc(O[C@H]3O[C@H](CO)[C@@H](O)[C@H](O)[C@@H]3O[C@H]3O[C@H](CO)[C@@H](O)[C@H](O)[C@@H]3O)cc2)C(=O)N[C@H]([C@@H](C)O)C(=O)N[C@@H](c2ccc(O)cc2)C(=O)NCC(=O)N[C@@H](CC(C)C)C(=O)N[C@H](C)C(=O)N[C@@H](c2ccc(O)c(Cl)c2)C(=O)O[C@@H]1C(N)=O	≤ 0.125	≤ 0.125	≤ 0.125	1 (≈ 0.39 µM)	0.5 (≈ 0.195 µM)	≤ 0.125	≤ 0.125	> 128	> 128	2	0.5	0.5	1	78	37	23	–	–	–	–
CC(C)C/C=C/C=C\C(=O)N[C@@H](CC(N)=O)C(=O)N[C@@H]1C(=O)N[C@H](c2ccc(O)cc2)C(=O)N[C@H](CCCN)C(=O)N[C@H]([C@@H](C)O)C(=O)N[C@@H](c2ccc(O)cc2)C(=O)N[C@H](c2ccc(O)cc2)C(=O)N[C@@H]([C@H](C)O)C(=O)N[C@@H](Cc2ccccc2)C(=O)N[C@H](CCCN)C(=O)N[C@@H](c2ccc(O[C@H]3O[C@H](CO)[C@@H](O)[C@H](O)[C@@H]3O[C@H]3O[C@H](CO)[C@@H](O)[C@H](O)[C@@H]3O)cc2)C(=O)N[C@H]([C@@H](C)O)C(=O)N[C@@H](c2ccc(O)cc2)C(=O)NCC(=O)N[C@@H](CC(C)C)C(=O)N[C@H](C)C(=O)N[C@@H](c2ccc(O)c(Cl)c2)C(=O)O[C@@H]1C(N)=O [RAMOPLANIN A2] ({Octa(2Z,4E)dienoyl(7-Me)}-N[X1][dHpg][dOrn][d(aThr)][Hpg][dHpg][aThr]F[dOrn][Hpg(αMan(1-2)αMan)][d(aThr)][Hpg]GL[dA][Hpg(3-Cl)]; ester 2-C)	< 0.03	< 0.03	0.06 (≈ 0.0235 µM)	1 (≈ 0.392 µM)	0.25 (≈ 0.0979 µM)	< 0.03	< 0.03	< 32	< 32	–	–	–	–	–	–	87	79	81	–	–
CC(C)/C=C/C=C/CC(=O)N[C@@H](CC(N)=O)C(=O)NC[C@@H]1C(=O)N[C@H](c2ccc(O)cc2)C(=O)N[C@H](CCCN)C(=O)N[C@H](C(C)C)C(=O)N[C@@H](c2ccc(O)cc2)C(=O)N[C@H](c2ccc(O)cc2)C(=O)N[C@@H]([C@@H](C)O)C(=O)N[C@@H](Cc2ccccc2)C(=O)N[C@H](CCCN)C(=O)N[C@@H](c2ccc(O[C@H]3O[C@H](CO)[C@@H](O)[C@H](O)[C@@H]3O[C@H]3O[C@H](CO)[C@@H](O)[C@H](O)[C@@H]3O)cc2)C(=O)N[C@H]([C@@H](C)O)C(=O)N[C@@H](c2ccc(O)cc2)C(=O)NCC(=O)N[C@@H](CC(C)C)C(=O)N[C@H](C)C(=O)N[C@@H](c2ccc(O)c(Cl)c2)C(=O)O[C@@H]1C(N)=O	0.25 (≈ 0.0974 µM)	≤ 0.125	0.25 (≈ 0.0974 µM)	2 (≈ 0.779 µM)	1 (≈ 0.39 µM)	≤ 0.125	0.25 (≈ 0.0974 µM)	> 128	> 128	4	1	1	1	–	29	30	–	–	≤ 0.125	≤ 0.125
CCCCCCCCc1ccc(C(=O)N[C@@H](CC(N)=O)C(=O)NC[C@@H]2C(=O)N[C@H](c3ccc(O)cc3)C(=O)N[C@H](CCCN)C(=O)N[C@H](C(C)C)C(=O)N[C@@H](c3ccc(O)cc3)C(=O)N[C@H](c3ccc(O)cc3)C(=O)N[C@@H]([C@@H](C)O)C(=O)N[C@@H](Cc3ccccc3)C(=O)N[C@H](CCCN)C(=O)N[C@@H](c3ccc(O[C@H]4O[C@H](CO)[C@@H](O)[C@H](O)[C@@H]4O[C@H]4O[C@H](CO)[C@@H](O)[C@H](O)[C@@H]4O)cc3)C(=O)N[C@H]([C@@H](C)O)C(=O)N[C@@H](c3ccc(O)cc3)C(=O)NCC(=O)N[C@@H](CC(C)C)C(=O)N[C@H](C)C(=O)N[C@@H](c3ccc(O)c(Cl)c3)C(=O)O[C@@H]2C(N)=O)cc1	4 (≈ 1.51 µM)	8 (≈ 3.02 µM)	8 (≈ 3.02 µM)	16 (≈ 6.05 µM)	16 (≈ 6.05 µM)	2 (≈ 0.756 µM)	4 (≈ 1.51 µM)	> 32	> 32	–	–	–	–	–	–	–	72	95	4 (≈ 1.51 µM)	4 (≈ 1.51 µM)
